# Experimental data as given in ChEMBL document CHEMBL1201862, “PubChem BioAssay data set” (2004).
# Values joined by “and” are separate entries in the source; they are usually repeats but may differ in a detail not shown here. Equal entries are not always repeated.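 Method: 48-hour compound exposure of cells in 96-well plates, five concentrations, linear interpolation of endpoints. GI50 is the concentration that inhibits growth by half.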 Active and inactive are the calls of the source. Rule as the data show it: active = GI50 up to about 1.1 µM and inactive = higher.
# How the values were obtained:
# Test in all cases: NCI-60 cell line screen, 48 h
# [1] = tested on: SF-295
# [2] = tested on: NCI-H522
# [3] = tested on: SK-OV-3
# [4] = tested on: T47D
# [5] = tested on: DU-145
# [6] = tested on: Hs-578T
# [7] = tested on: KM12
# [8] = tested on: PC-3
# [9] = tested on: MOLT-4
# [10] = tested on: COLO 205
# [11] = tested on: U-251
# [12] = tested on: MDA-MB-435
# [13] = tested on: SR
# [14] = tested on: SN12C
# [15] = tested on: SF-539
# [16] = tested on: SNB-19
# [17] = tested on: SK-MEL-28
# [18] = tested on: SK-MEL-2
# [19] = tested on: NCI-H460
# [20] = tested on: A498
SMILES,GI50 [1],GI50 [2],GI50 [3],GI50 [4],GI50 [5],GI50 [6],GI50 [7],GI50 [8],GI50 [9],GI50 [10],GI50 [11],GI50 [12],GI50 [13],GI50 [14],GI50 [15],GI50 [16],GI50 [17],GI50 [18],GI50 [19],GI50 [20]
c1ccc2c(c1)ncn2C1CCCCO1 (stereo unspecified),> 100 µM (inactive),> 100 µM (inactive),> 100 µM (inactive),> 100 µM (inactive),> 100 µM (inactive),> 100 µM (inactive),> 100 µM (inactive),> 100 µM (inactive),> 100 µM (inactive),> 100 µM (inactive),> 100 µM (inactive),> 100 µM (inactive),> 100 µM (inactive),> 100 µM (inactive),> 100 µM (inactive),> 100 µM (inactive),> 100 µM (inactive),> 100 µM (inactive),,
C[n+]1ccc(/C2=C3\C=CC(=N3)/C(c3cc[n+](C)cc3)=c3/cc/c([nH]3)=C(\c3cc[n+](C)cc3)C3=N/C(=C(/c4cc[n+](C)cc4)C4C=CC2N4)C=C3)cc1,> 100 µM (inactive),> 100 µM (inactive),> 85.3 µM (inactive),> 100 µM (inactive),> 100 µM (inactive),> 80 µM (inactive),35.9 µM (inactive),,95.3 µM (inactive),> 100 µM (inactive),3.93 µM (inactive),> 61.7 µM (inactive),7.73 µM (inactive),> 100 µM (inactive),> 93.5 µM (inactive),> 100 µM (inactive),> 100 µM (inactive),,32.9 µM (inactive),> 100 µM (inactive)
CCCCCCCCCCCCNC(C)=O,17.7 µM (inactive),14 µM (inactive),15.7 µM (inactive),18.9 µM (inactive),30.9 µM (inactive),14.4 µM (inactive),17.8 µM (inactive),14.5 µM (inactive),,17.7 µM (inactive),15.4 µM (inactive),18.2 µM (inactive),,16.6 µM (inactive),16.3 µM (inactive),16.3 µM (inactive),17.6 µM (inactive),14.8 µM (inactive),17.7 µM (inactive),20 µM (inactive)
N#CC[N+]1(Cc2ccccn2)CCCC1.O=S(=O)([O-])c1ccccc1,> 100 µM (inactive),> 100 µM (inactive),> 100 µM (inactive),> 100 µM (inactive),> 100 µM (inactive),> 100 µM (inactive),> 100 µM (inactive),> 100 µM (inactive),7.01 µM (inactive),> 100 µM (inactive),> 100 µM (inactive),> 100 µM (inactive),,> 100 µM (inactive),> 100 µM (inactive),> 100 µM (inactive),> 100 µM (inactive),> 100 µM (inactive),> 100 µM (inactive),> 100 µM (inactive)
COc1ccc([C@@]23Oc4cc(OC)cc(OC)c4[C@]2(O)[C@H](O)[C@H](C(N)=O)[C@H]3c2ccccc2)cc1 [DIDESMETHYLROCAGLAMIDE],< 0.01 µM (active),< 0.01 µM (active),< 0.01 µM (active),< 0.01 µM (active),< 0.01 µM (active),< 0.01 µM (active),< 0.01 µM (active),< 0.01 µM (active),< 0.01 µM (active),< 0.01 µM (active),< 0.01 µM (active),< 0.01 µM (active),,< 0.01 µM (active),< 0.01 µM (active),< 0.01 µM (active),< 0.01 µM (active),< 0.0106 µM (active),< 0.01 µM (active),< 0.01 µM (active)
CSc1nnc(SC)nn1,18.1 µM (inactive),16.4 µM (inactive),21.4 µM (inactive),2.76 µM (inactive),20.4 µM (inactive),27.2 µM (inactive),15.3 µM (inactive),18.5 µM (inactive),0.438 µM (active),18.7 µM (inactive),20.6 µM (inactive),16.9 µM (inactive),,21.1 µM (inactive),18.2 µM (inactive),20.7 µM (inactive),,,18.2 µM (inactive),> 100 µM (inactive)
COc1ccc(Cn2c(=O)c(OC)c(C)c3cc4ccccc4cc32)cc1,32.3 µM (inactive),21.4 µM (inactive),42.3 µM (inactive),33.6 µM (inactive),35.2 µM (inactive),40.9 µM (inactive),26.5 µM (inactive),16.1 µM (inactive),11.8 µM (inactive),20.1 µM (inactive),23 µM (inactive),28.1 µM (inactive),21.3 µM (inactive),19.8 µM (inactive),32.7 µM (inactive),48.1 µM (inactive),94.6 µM (inactive),17.2 µM (inactive),17.3 µM (inactive),
NC1=NC(=O)/C(=C2\CCNC(=O)c3[nH]c(Br)cc32)N1 [HYMENIALDISINE],> 100 µM (inactive),,,7.87 µM (inactive),39.6 µM (inactive),38.6 µM (inactive),,56.6 µM (inactive),4.28 µM (inactive) and 3.45 µM (inactive),,26.4 µM (inactive) and 18.6 µM (inactive),5.58 µM (inactive),0.303 µM (active),19.5 µM (inactive) and 11.3 µM (inactive),,39.1 µM (inactive) and 48.2 µM (inactive),7.74 µM (inactive) and 13.8 µM (inactive),,65.6 µM (inactive),
